Assay results from patent US5932742A, “Arylsulfonylimidazolone derivatives as an antitumor agent” (priority 1996, dated 1999).
≈ marks a conversion by molar mass, not a printed value. Structures can show the parent of a compound that is named as a salt. Where two headings read alike, the source gives them in different places.

What was measured:
Format in all cases: cell-based
[1] = test system: A549 (ATCC CCL 185): human lung carcinoma; assay: In vitro antitumor activity, MTT assay, A549; conditions: Homo sapiens, A549, 48 h
Description: (§1) In vitro antitumor activity against human tumor cell lines
(§2) In vitro antitumor activity of the compounds according to the present invention was determined by MTT assay method against the following human tumor cell lines:
A549 (ATCC CCL 185): human lung carcinoma
(§3) In this test, the known antineoplastic compounds, Doxorubicin and Sulofenur, were used as the comparative agents.
(§4) Each of the tumor cells was cultured in RPMI 1640 media containing 10% fetal bovine serum, 100 IU/ml penicillin and 100 μg/ml streptomycin, and then periodically subcultured once or twice per week in trypsin-EDTA solution containing 0.05% trypsin and 0.53mM EDTA.4Na. The human tumor cell line thus obtained (10,000cells/100 μl) was plated on 96-well microplate and then cultured for 24 hrs at 37° C. in a 5% CO2 incubator. Test compound was dissolved in DMSO, sterilized with 0.22 μm PVDF filter, and then serially 5-fold diluted from 40 μg/ml to 0.00256μg/ml. 100 μl of the sample solution thus prepared and RPMI 1640 medium only (control group) were added to 96-well microplate containing the human tumor cell, respectively. The final concentration of the test compound was in the range from 20 μg/ml to 0.00128 μg/ml and the concentration of DMSO was below 0.5%. The cells were cultured for 48 hrs at 37° C. in a 5% CO2 incubator. MTT(3-(4,5-Dimethylthiazole-2-yl)-e,5-diphenyltetrazoliumbromide) was dissolved in physiological saline in a concentration of 2 mg/ml and the resulting solution was filtered through 0.22 μm PTFE filter. 25 μl of MTT solution thus prepared was added to each well of 96-well microplate and incubated for additional 4 hrs at 37° C. in a 5% CO2 incubator. Then, the content of microplate was centrifuged at 1000 rpm for 10 min, and supernatant was removed by flicking. The formazan formed from MTT by mitochondrial succinate dehydrogenase was dissolved in 100 μl of DMSO. The absorbance of each well was measured at 540nm by micro ELISA reader and the cytotoxicity was calculated by dividing the absorbance of test group by the absorbance of control group. After the calculated cytotoxicity (%) was plotted, the concentration of 50% tumor growth inhibition concentration (IC50) was estimated by Linear-Regression method.

[2] = test system: SK-OV-3 (ATCC HTB 77): human ovarian adenocarcinoma; assay: In vitro antitumor activity, MTT assay, SK-OV-3; conditions: Homo sapiens
Description: as §1, §2
SK-OV-3 (ATCC HTB 77): human ovarian adenocarcinoma
as §3, §4

[3] = test system: K562 (ATCC CCL 243): human chronic myelogenous leukemia; assay: In vitro antitumor activity, MTT assay, K562; conditions: Homo sapiens, K562, 48 h
Description: as §1, §2
K562 (ATCC CCL 243): human chronic myelogenous leukemia
as §3, §4

[4] = test system: Colo205 (ATCC CCL 222): human colon adenocarcinoma; assay: In vitro antitumor activity, MTT assay, Colo205; conditions: Homo sapiens
Description: as §1, §2
Colo205 (ATCC CCL 222): human colon adenocarcinoma
as §3, §4

[5] = COLO 205, Table 1, 48 hrs, read-out: IC50 (Colo205)
[6] = COLO 205, Table 3, 48 hrs, read-out: IC50 (Col205)

| Compound | IC50 ([1]; Table 4) [µg/mL] | IC50 ([2]; SK-OV-3, Table 4, 48 hrs) [µg/mL] | IC50 ([3]; Table 4, read-out: IC50 (K562)) [µg/mL] | other results |
| --- | --- | --- | --- | --- |
| O=C(c1cccc(F)c1)N1CCc2cc(S(=O)(=O)N3CC(c4ccccc4)NC3=O)ccc21 (stereo not drawn) [Example 60, 4-phenyl-1-[N-(3-fluorobenzoyl)indoline-5-sulfonyl]-4,5-dihydro-2-imidazolone] | 0.328 (≈ 0.705 µM) | 8.51 (≈ 18.3 µM) | 0.619 (≈ 1.33 µM) |  |
| COc1ccc(C(=O)N2CCc3cc(S(=O)(=O)N4CC(c5ccccc5)NC4=O)ccc32)cc1 (stereo not drawn) [Example 50, 4-phenyl-1-[N-(4-methoxybenzoyl)indoline-5-sulfonyl]-4,5-dihydro-2-imidazolone] | 1.56 (≈ 3.28 µM) | 1.37 (≈ 2.87 µM) | 2.19 (≈ 4.58 µM) |  |
| O=C(c1cccc(OC(F)(F)F)c1)N1CCc2cc(S(=O)(=O)N3CC(c4ccccc4)NC3=O)ccc21 (stereo not drawn) [Example 63, 4-phenyl-1-[N-(3-trifluoromethoxybenzoyl)indoline-5-sulfonyl]-4,5-dihydro-2-imidazolone] | 2.74 (≈ 5.15 µM) | 11.3 (≈ 21.4 µM) |  |  |
| CC(C)NC(=O)N1CCc2cc(S(=O)(=O)n3cc(-c4ccccc4)[nH]c3=O)ccc21 [Example 6, 4-phenyl-1-(N-isopropylcarbamoylindoline-5-sulfonyl)-2-imidazolone] |  |  |  | IC50 ([1]; Table 1): < 0.00128 µg/mL; IC50 [4, 5]: < 0.00128 µg/mL; IC50 ([2]; SK-OV-3, Table 1, 48 hrs): < 0.00128 µg/mL |
| CSc1ccc(NC(=O)N2CCc3cc(S(=O)(=O)N4CC(c5ccccc5)NC4=O)ccc32)cc1 (stereo not drawn) [Example 37] |  |  |  | IC50 ([1]; Table 3): 2.34 µg/mL (≈ 4.6 µM); IC50 [4, 6]: 0.71 µg/mL (≈ 1.4 µM); IC50 ([2]; SK-OV-3, Table 3, 48 hrs): 0.716 µg/mL (≈ 1.41 µM); IC50 ([3]; Table 3, read-out: IC50 (K562)): > 20 µg/mL |
| N#Cc1ccc(C(=O)N2CCc3cc(S(=O)(=O)N4CC(c5ccccc5)NC4=O)ccc32)cc1 (stereo not drawn) [Example 56, 4-phenyl-1-[N-(4-cyanobenzoyl)indoline-5-sulfonyl]-4,5-dihydro-2-imidazolone] | 1.59 (≈ 3.36 µM) | 0.968 (≈ 2.05 µM) | 4.96 (≈ 10.5 µM) |  |
| C[C@H](N)C(=O)Nc1ccc(C(=O)N2CCc3cc(S(=O)(=O)N4C[C@H](c5ccccc5)NC4=O)ccc32)cc1 [Example 66, (S)-(+)-4-phenyl-1-[N-{4-(2-aminopropanoyl)aminobenzoyl}indoline-5-sulfonyl]-4,5-dihydro-2-imidazolone.HCl] |  |  |  | IC50 ([1]; Table 5): 0.112 µg/mL; IC50 ([4]; COLO 205, Table 5, 48 hrs, read-out: IC50 (Colo205)): 0.77 µg/mL; IC50 ([2]; SK-OV-3, Table 5, 48 hrs): 0.259 µg/mL; IC50 ([3]; Table 5, read-out: IC50 (K562)): 3.57 µg/mL |
| CC(C)NC(=O)N1CCc2cc(S(=O)(=O)N3CC(c4ccccc4)NC3=O)ccc21 (stereo not drawn) [Example 31, 4-phenyl-1-(N-isopropylcarbamoylindoline-5-sulfonyl)-4,5-dihydro-2-imidazolone] |  |  |  | IC50 ([1]; Table 3): 0.073 µg/mL (≈ 0.17 µM); IC50 [4, 6]: 0.258 µg/mL (≈ 0.602 µM); IC50 ([2]; SK-OV-3, Table 3, 48 hrs): 0.28 µg/mL (≈ 0.653 µM); IC50 ([3]; Table 3, read-out: IC50 (K562)): 0.439 µg/mL (≈ 1.02 µM) |
| O=C(c1ccc([N+](=O)[O-])cc1)N1CCc2cc(S(=O)(=O)N3CC(c4ccccc4)NC3=O)ccc21 (stereo not drawn) [Example 55, 4-phenyl-1-[N-(4-nitrobenzoyl)indoline-5-sulfonyl]-4,5-dihydro-2-imidazolone] | 1.7 (≈ 3.45 µM) | 2.09 (≈ 4.24 µM) | 8.88 (≈ 18 µM) |  |
| O=C(c1cccc(Cl)c1)N1CCc2cc(S(=O)(=O)N3CC(c4ccccc4)NC3=O)ccc21 (stereo not drawn) [Example 58, 4-phenyl-1-[N-(3-chlorobenzoyl)indoline-5-sulfonyl]-4,5-dihydro-2-imidazolone] | 1.62 (≈ 3.36 µM) | 2.6 (≈ 5.39 µM) | 7.04 (≈ 14.6 µM) |  |
| CCCNC(=S)N1CCc2cc(S(=O)(=O)N3CC(c4ccccc4)NC3=O)ccc21 (stereo not drawn) [Example 40, 4-phenyl-1-(N-propylthiocarbamoylindoline-5-sulfonyl)-4,5-dihydro-2-imidazolone] |  |  |  | IC50 ([1]; Table 3): 0.245 µg/mL (≈ 0.551 µM); IC50 ([2]; SK-OV-3, Table 3, 48 hrs): 3.66 µg/mL (≈ 8.24 µM); IC50 ([3]; Table 3, read-out: IC50 (K562)): 0.337 µg/mL (≈ 0.758 µM) |
| O=C(c1ccc(F)cc1)N1CCc2cc(S(=O)(=O)N3CC(c4ccccc4)NC3=O)ccc21 (stereo not drawn) [Example 54, 4-phenyl-1-[N-(4-fluorobenzoyl)indoline-5-sulfonyl]-4,5-dihydro-2-imidazolone] | 0.59 (≈ 1.27 µM) | 2.33 (≈ 5 µM) | 3.64 (≈ 7.83 µM) |  |
| CCOc1ccc(C(=O)N2CCc3cc(S(=O)(=O)N4CC(c5ccccc5)NC4=O)ccc32)cc1 (stereo not drawn) [Example 52, 4-phenyl-1-[N-(4-ethoxybenzoyl)indoline-5-sulfonyl]-4,5-dihydro-2-imidazolone] | 0.101 (≈ 0.205 µM) | 2.22 (≈ 4.51 µM) |  |  |
| O=C(c1ccc(OC(F)(F)F)cc1)N1CCc2cc(S(=O)(=O)N3CC(c4ccccc4)NC3=O)ccc21 (stereo not drawn) [Example 64, 4-phenyl-1-[N-(4-trifluoromethoxybenzoyl)indoline-5-sulfonyl]-4,5-dihydro-2-imidazolone] | 0.695 (≈ 1.31 µM) | 2.96 (≈ 5.56 µM) |  |  |
| COc1ccc(C(=O)N2CCc3cc(S(=O)(=O)N4CC(c5ccccc5)NC4=O)ccc32)cc1OC (stereo not drawn) [Example 51, 4-phenyl-1-[N-(3,4-dimethoxybenzoyl)indoline-5-sulfonyl]-4,5-dihydro-2-imidazolone] | 1.65 (≈ 3.25 µM) | 12.1 (≈ 23.9 µM) | 0.218 (≈ 0.429 µM) |  |
| O=C(c1ccccc1O)N1CCc2cc(S(=O)(=O)N3CC(c4ccccc4)NC3=O)ccc21 (stereo not drawn) [Example 49, 4-phenyl-1-[N-(2-hydroxybenzoyl)indoline-5-sulfonyl]-4,5-dihydro-2-imidazolone] | 0.638 (≈ 1.38 µM) | 0.591 (≈ 1.28 µM) | 5.71 (≈ 12.3 µM) |  |
| Cc1ccc(C(=O)N2CCc3cc(S(=O)(=O)N4CC(c5ccccc5)NC4=O)ccc32)cc1 (stereo not drawn) [Example 48, 4-phenyl-1-[N-(4-methylbenzoyl)indoline-5-sulfonyl]-4,5-dihydro-2-imidazolone] | 1.74 (≈ 3.76 µM) | > 20 | 2.4 (≈ 5.2 µM) |  |
| COc1ccc(NC(=S)N2CCc3cc(S(=O)(=O)N4CC(c5ccccc5)NC4=O)ccc32)cc1 (stereo not drawn) [Example 43, 4-phenyl-1-[N-(4-methoxyphenyl)thiocarbamoylindoline-5-sulfonyl]-4,5-dihydro-2-imidazolone] |  |  |  | IC50 ([1]; Table 3): 1.27 µg/mL (≈ 2.49 µM); IC50 ([2]; SK-OV-3, Table 3, 48 hrs): 1.03 µg/mL (≈ 2.03 µM); IC50 ([3]; Table 3, read-out: IC50 (K562)): 1.28 µg/mL (≈ 2.52 µM) |
| O=C(c1ccc(Cl)cc1)N1CCc2cc(S(=O)(=O)N3CC(c4ccccc4)NC3=O)ccc21 (stereo not drawn) [Example 53, 4-phenyl-1-[N-(4-chlorobenzoyl)indoline-5-sulfonyl]-4,5-dihydro-2-imidazolone] | 0.774 (≈ 1.61 µM) | 5.97 (≈ 12.4 µM) | 0.594 (≈ 1.23 µM) |  |
| O=C(c1cc(Cl)cc(Cl)c1)N1CCc2cc(S(=O)(=O)N3CC(c4ccccc4)NC3=O)ccc21 (stereo not drawn) [Example 59, 4-phenyl-1-[N-(3,5-dichlorobenzoyl)indoline-5-sulfonyl]-4,5-dihydro-2-imidazolone] | 2.02 (≈ 3.92 µM) | 16.5 (≈ 32 µM) | 1.88 (≈ 3.64 µM) |  |
| O=C(c1cccc(C(F)(F)F)c1)N1CCc2cc(S(=O)(=O)N3CC(c4ccccc4)NC3=O)ccc21 (stereo not drawn) [Example 62, 4-phenyl-1-[N-(3-trifluoromethylbenzoyl)indoline-5-sulfonyl]-4,5-dihydro-2-imidazolone] | 2.18 (≈ 4.24 µM) | 11.8 (≈ 22.8 µM) | 1.37 (≈ 2.65 µM) |  |
| O=C(c1ccc(F)cc1F)N1CCc2cc(S(=O)(=O)N3CC(c4ccccc4)NC3=O)ccc21 (stereo not drawn) [Example 61, 4-phenyl-1-[N-(2,4-difluorobenzoyl)indoline-5-sulfonyl]-4,5-dihydro-2-imidazolone] | 1.94 (≈ 4.01 µM) | 1.52 (≈ 3.14 µM) | 5.66 (≈ 11.7 µM) |  |
| C=CCNC(=O)N1CCc2cc(S(=O)(=O)N3CC(c4ccccc4)NC3=O)ccc21 (stereo not drawn) [Example 32, 4-phenyl-1-(N-allylcarbamoylindoline-5-sulfonyl)-4,5-dihydro-2-imidazolone] |  |  |  | IC50 ([1]; Table 3): 0.042 µg/mL (≈ 0.0985 µM); IC50 [4, 6]: 7.1 µg/mL (≈ 16.6 µM); IC50 ([2]; SK-OV-3, Table 3, 48 hrs): 0.685 µg/mL (≈ 1.61 µM) |
| CCCNC(=O)N1CCc2cc(S(=O)(=O)n3cc(-c4ccccc4)[nH]c3=O)ccc21 [Example 4, 4-phenyl-1-(N-propylcarbamoylindoline-5-sulfonyl)-2-imidazolone] |  |  |  | IC50 ([1]; Table 1): 0.052 µg/mL (≈ 0.122 µM); IC50 [4, 5]: < 0.00128 µg/mL; IC50 ([2]; SK-OV-3, Table 1, 48 hrs): < 0.00128 µg/mL |
| O=C(c1ccccc1)N1CCc2cc(S(=O)(=O)N3CC(c4ccccc4)NC3=O)ccc21 (stereo not drawn) [Example 47, 4-phenyl-1-(N-benzoylindoline-5-sulfonyl)-4,5-dihydro-2-imidazolone] | 0.196 (≈ 0.438 µM) | 0.26 (≈ 0.581 µM) | 1.84 (≈ 4.12 µM) |  |
